# Experimental data as given in patent US20130158090A1, “METRONIDAZOLE ESTERS FOR TREATING ROSACEA” (GALDERMA RESEARCH & DEVELOPMENT, priority 2010, published 2013).
# Columns and labels:
# [1] = system: human neonatal keratinocytes; assay: Stability on keratinocyte cultures; assay type: in vitro ADME; conditions: human neonatal keratinocyte cultures, comparative esters
# Procedure: (§1) The stability on keratinocyte cultures is evaluated using human neonatal keratinocytes (Cell'N Tech) cultured in a 75 cm^2 flask and detached at 90-100% of confluence with vegetable trypsin (trypLE GIBCO). The compound of formula (I) was tested at 2 μM in the medium CNT-057 (Cell'N Tech) supplemented with 0.1% pluronic acid in 24-well plates. The final DMSO concentration is 0.1%. Degradation kinetics are performed with a Tecan EVO robot over 24 hours. The samples taken are then assayed by LC/MS/MS (Micromass) in comparison with a calibration range of the test product, prepared under the same conditions as the samples (⅓ culture medium and ⅔ methanol). The chromatographic conditions are optimized for each product. An assay of the appearance of metronidazole is also performed using these same samples.
# [2] = Stability on keratinocyte cultures; assay type: in vitro ADME, human; conditions: human neonatal keratinocyte culture, 2 μM, degradation kinetics over 24 hours, LC/MS/MS; read-out: half-life time (t1/2) (converted)
# Procedure: as §1
# [3] = system: oedema induced by arachidonic acid (AA) on mouse ear; assay: Acute inflammation on mouse ear: arachidonic acid-induced oedema; assay type: in vivo; conditions: 1 hour after application
# Procedure: The anti-inflammatory activities of the compound of formula (I) in racemic form, of the S enantiomer of the compound of formula (I), of metronidazole and of ibuprofen were measured in an in vivo test performed on a mouse model. This model consists in inducing inflammation of the mouse ear with a single application of arachidonic acid (AA). Female Balb/c ByJlco mice are used. The oedema is induced by applying to the mouse's ear 20 μL of AA dissolved to 4% in a 1/1 THF/methanol mixture. The anti-inflammatory activities of the S enantiomer of the compound of formula (I), of the compound of formula (I) in racemic form, of metronidazole and of ibuprofen were evaluated after topical application onto the inner face of the mouse's ear of 20 μL of a solution of the compound in a 1/1 THF/methanol mixture containing 4% AA.
# Solutions containing 0.01%; 0.03%; 0.1%; 0.3%; 1% and 2% of the test compound are thus prepared. The percentages correspond to the weight of the test compound per volume of solution. The oedema is evaluated, 1 hour after application, by measuring the thickness of the ear using an Oditest® micrometer. The oedema induced by AA alone is evaluated, 1 hour after application, by measuring the thickness of the ear using an Oditest® micrometer. It is evaluated relative to a group comprising only the vehicle (1/1 THF/methanol). […]
# [4] = system: oedema induced by TPA (phorbol 12-myristate-13-acetate) on mouse ear; assay: Acute inflammation on mouse ear: oedema induced by TPA; assay type: in vivo; conditions: 6 hours after application
# Procedure: The anti-inflammatory activities of the compound of formula (I) in racemic form, of the S enantiomer of the compound of formula (I), of metronidazole and of ibuprofen were measured in an in vivo test performed on a mouse model.
# The model used is the model of mouse ear inflammation induced by a single application of TPA (phorbol 12-myristate-13-acetate). Female Balb/c ByJlco mice are used.
# The oedema is induced by applying to the ear 20 μl of 0.01% TPA dissolved in ethanol.
# The racemic compound of formula (I) is dissolved, at the desired concentration, in the 0.01% TPA solution and thus applied to a group of mice at the same time as the TPA.
# The S enantiomer of the compound of formula (I) is dissolved, at the desired concentration, in the 0.01% TPA solution and thus applied to another group of mice at the same time as the TPA.
# Similarly, ibuprofen (racemic) is dissolved, at the desired concentration, in the 0.01% TPA solution and is applied to another group of mice at the same time as the TPA. Finally, metronidazole is dissolved, at the desired concentration, in the 0.01% TPA solution and is applied to another group of mice at the same time as the TPA.
# The oedema is evaluated, 6 hours after application of the test product, by measuring the thickness of the ear using an Oditest® micrometer.
# The TPA-induced oedema is evaluated relative to the ethanol vehicle group. […]
compound,measurement,setting,value
Cc1ncc([N+](=O)[O-])n1CCOC(=O)C1CCn2c(C(=O)c3ccccc3)ccc21 (stereo not shown) [metronidazole ester with ketorolac],hydrolysis / stability on keratinocyte cultures,[1],do not become hydrolysed
Cc1ncc([N+](=O)[O-])n1CCOC(=O)c1cc(-c2ccc(F)cc2F)ccc1O [metronidazole ester with diflunisal],hydrolysis / stability on keratinocyte cultures,[1],do not become hydrolysed
Cc1ncc([N+](=O)[O-])n1CCOC(=O)c1cccnc1Nc1cccc(C(F)(F)F)c1 [metronidazole ester with niflumic acid],hydrolysis / stability on keratinocyte cultures,[1],do not become hydrolysed
COc1ccc2c(c1)c(CC(=O)OCCn1c([N+](=O)[O-])cnc1C)c(C)n2C(=O)c1ccc(Cl)cc1 [metronidazole ester with indomethacin],hydrolysis / stability on keratinocyte cultures,[1],do not become hydrolysed
"Cc1ncc([N+](=O)[O-])n1CCOC(=O)[C@@H](C)c1ccc(CC(C)C)cc1 [S enantiomer of the compound of formula (I), 2-(2-methyl-5-nitroimidazol-1-yl)ethyl (S)-2-(4-isobutylphenyl)propionate]",half-life at 2 μM,[2],20 h
same,inhibition of the oedema induced by AA alone,[3]; dose of 1% (w/v) topical on mouse ear,49%
Cc1ncc([N+](=O)[O-])n1CCO [metronidazole],anti-inflammatory activity,"[3]; AA-induced mouse ear oedema, topical",no anti-inflammatory activity
same,anti-inflammatory activity,[4]; topical,no anti-inflammatory activity
"Cc1ncc([N+](=O)[O-])n1CCOC(=O)C(C)c1ccc(CC(C)C)cc1 (racemic) [racemic compound of formula (I), 2-(2-methyl-5-nitroimidazol-1-yl)ethyl 2-(4-isobutylphenyl)propionate]",half-life at 2 μM,[2],3 h
same,IC50 (concentration at which 50% inhibition of the oedema induced by TPA alone is observed),[4]; topical with 0.01% TPA,0.28%
